According to US9382234B2, “Enhancer of Zeste Homolog 2 inhibitors” (GlaxoSmithKline LLC, priority 2012, dated 2016):

Biological target: T1, EZH2 within the PRC2 complex (Homo sapiens, UniProt Q15910)
T1 construct: FLAG; made in house; host or cells: Sf9 cells
Assay: EZH2 methyltransferase scintillation proximity assay (SPA) with PRC2 complex
Assay type: biochemical
Conditions: 3H-SAM methyl transfer to Histone H3 of HeLa mononucleosomes; 30 min preincubation, 1 hour reaction

T1 sequence (Q15910 whole entry): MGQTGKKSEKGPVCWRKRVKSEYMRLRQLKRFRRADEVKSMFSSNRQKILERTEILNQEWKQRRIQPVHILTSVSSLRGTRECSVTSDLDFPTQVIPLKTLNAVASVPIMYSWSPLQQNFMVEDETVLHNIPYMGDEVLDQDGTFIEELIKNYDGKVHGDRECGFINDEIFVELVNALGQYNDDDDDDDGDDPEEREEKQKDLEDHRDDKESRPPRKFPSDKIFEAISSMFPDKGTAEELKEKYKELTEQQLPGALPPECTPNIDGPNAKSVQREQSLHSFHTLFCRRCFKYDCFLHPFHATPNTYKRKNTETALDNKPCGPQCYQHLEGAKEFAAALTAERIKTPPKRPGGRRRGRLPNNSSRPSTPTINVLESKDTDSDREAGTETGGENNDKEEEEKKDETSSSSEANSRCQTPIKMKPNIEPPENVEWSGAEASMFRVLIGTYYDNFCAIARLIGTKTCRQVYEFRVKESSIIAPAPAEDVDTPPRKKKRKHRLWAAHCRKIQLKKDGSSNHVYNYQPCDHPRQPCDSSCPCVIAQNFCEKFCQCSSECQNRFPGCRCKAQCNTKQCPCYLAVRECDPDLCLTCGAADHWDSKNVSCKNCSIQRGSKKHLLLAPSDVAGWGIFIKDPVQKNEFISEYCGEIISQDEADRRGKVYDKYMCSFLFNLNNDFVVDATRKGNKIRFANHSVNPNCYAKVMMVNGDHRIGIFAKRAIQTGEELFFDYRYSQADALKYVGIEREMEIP
T1 sequence (O75530 whole entry partner): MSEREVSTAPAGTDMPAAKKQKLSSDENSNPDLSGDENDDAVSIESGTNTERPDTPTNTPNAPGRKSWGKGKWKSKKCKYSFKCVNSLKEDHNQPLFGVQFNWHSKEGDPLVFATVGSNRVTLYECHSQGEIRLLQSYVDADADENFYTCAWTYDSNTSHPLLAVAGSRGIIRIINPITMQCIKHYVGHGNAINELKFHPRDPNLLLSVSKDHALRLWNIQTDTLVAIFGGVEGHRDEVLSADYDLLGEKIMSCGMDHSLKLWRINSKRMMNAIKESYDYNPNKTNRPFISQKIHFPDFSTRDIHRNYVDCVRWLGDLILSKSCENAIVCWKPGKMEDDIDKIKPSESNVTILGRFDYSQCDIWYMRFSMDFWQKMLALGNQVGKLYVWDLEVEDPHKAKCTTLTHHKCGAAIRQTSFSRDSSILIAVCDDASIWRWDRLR
T1 sequence (Q15022 whole entry partner): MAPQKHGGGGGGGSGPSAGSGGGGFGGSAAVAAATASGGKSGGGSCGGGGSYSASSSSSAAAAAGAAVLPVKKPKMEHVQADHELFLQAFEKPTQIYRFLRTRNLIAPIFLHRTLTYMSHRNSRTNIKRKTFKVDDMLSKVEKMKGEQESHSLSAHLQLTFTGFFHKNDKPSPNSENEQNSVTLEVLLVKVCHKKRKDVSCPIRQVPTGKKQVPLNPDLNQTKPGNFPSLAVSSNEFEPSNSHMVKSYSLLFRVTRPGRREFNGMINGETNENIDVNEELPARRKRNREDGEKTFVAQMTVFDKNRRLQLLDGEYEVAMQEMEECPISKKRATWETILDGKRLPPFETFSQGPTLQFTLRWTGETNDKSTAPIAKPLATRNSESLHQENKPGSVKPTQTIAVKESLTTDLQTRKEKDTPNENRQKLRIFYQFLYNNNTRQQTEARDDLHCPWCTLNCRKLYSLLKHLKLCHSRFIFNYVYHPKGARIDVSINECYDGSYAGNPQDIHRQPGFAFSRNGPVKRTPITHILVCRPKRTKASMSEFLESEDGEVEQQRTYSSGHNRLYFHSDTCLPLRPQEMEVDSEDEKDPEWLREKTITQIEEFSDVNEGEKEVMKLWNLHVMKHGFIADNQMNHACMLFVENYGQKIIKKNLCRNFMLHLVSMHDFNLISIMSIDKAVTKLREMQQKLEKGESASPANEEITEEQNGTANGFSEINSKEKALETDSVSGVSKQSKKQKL
T1 sequence (Q09028 whole entry partner): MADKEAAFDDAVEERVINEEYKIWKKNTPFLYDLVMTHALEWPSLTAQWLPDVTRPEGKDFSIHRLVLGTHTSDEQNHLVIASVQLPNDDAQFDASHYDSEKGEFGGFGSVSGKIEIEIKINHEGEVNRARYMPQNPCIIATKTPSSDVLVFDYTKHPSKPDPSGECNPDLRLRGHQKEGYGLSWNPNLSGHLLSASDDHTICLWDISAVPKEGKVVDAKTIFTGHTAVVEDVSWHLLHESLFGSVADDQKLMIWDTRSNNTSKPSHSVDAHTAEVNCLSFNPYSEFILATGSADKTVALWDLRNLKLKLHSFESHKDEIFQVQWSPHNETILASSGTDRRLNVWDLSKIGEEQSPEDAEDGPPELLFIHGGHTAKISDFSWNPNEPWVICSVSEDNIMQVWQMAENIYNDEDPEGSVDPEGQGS
T1 sequence (Q6ZN18 whole entry partner): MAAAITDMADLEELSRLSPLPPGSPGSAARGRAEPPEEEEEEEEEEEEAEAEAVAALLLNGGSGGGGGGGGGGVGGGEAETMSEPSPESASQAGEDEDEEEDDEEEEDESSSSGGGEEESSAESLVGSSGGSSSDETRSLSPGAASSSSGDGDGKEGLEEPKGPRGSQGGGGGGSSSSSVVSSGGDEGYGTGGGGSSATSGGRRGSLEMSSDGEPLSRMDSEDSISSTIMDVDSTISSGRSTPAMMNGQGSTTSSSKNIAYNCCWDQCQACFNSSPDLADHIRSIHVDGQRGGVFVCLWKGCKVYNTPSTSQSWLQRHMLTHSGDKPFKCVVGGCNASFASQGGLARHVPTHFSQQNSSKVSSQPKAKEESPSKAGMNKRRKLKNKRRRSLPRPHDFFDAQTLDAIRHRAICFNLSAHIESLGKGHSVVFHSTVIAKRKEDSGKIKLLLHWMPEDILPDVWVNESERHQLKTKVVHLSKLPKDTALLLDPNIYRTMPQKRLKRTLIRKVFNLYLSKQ

Compound | IC50
Cc1cc(=O)c(CNC(=O)c2cc(Cl)cc(OC3CCOCC3)c2C)c(C)[nH]1 [Example 2, 5-Chloro-N-((2,6-dimethyl-4-oxo-1,4-dihydropyridin-3-yl)methyl)-2-methyl-3-((tetrahydro-2H-pyran-4-yl)oxy)benzamide] | 6310 nM
Cc1cc(=O)c(CNC(=O)c2cc(Cl)cc(OC3CCN(c4ccncn4)CC3)c2C)c(C)[nH]1 [Example 3, 5-Chloro-N-((2,6-dimethyl-4-oxo-1,4-dihydropyridin-3-yl)methyl)-2-methyl-3-((1-(pyrimidin-4-yl)piperidin-4-yl)oxy)benzamide] | 251 nM
Cc1cc(=O)c(CNC(=O)c2cc(Cl)cc(OC3CCN(c4ccncn4)CC3)c2C)c(C)o1 [Example 5, 5-Chloro-N-((2,6-dimethyl-4-oxo-4H-pyran-3-yl)methyl)-2-methyl-3-((1-(pyrimidin-4-yl)piperidin-4-yl)oxy)benzamide] | 3160 nM
Cc1cc(=O)c(CNC(=O)c2cc(Cl)cc(OC3CCN(C(=O)OC(C)(C)C)CC3)c2C)c(C)[nH]1 [Example 8, tert-Butyl 4-(5-chloro-3-(((2,6-dimethyl-4-oxo-1,4-dihydropyridin-3-yl)methyl)carbamoyl)-2-methylphenoxy)piperidine-1-carboxylate] | 795 nM
Cc1cc(=O)c(CNC(=O)c2cc(Cl)cc(OC3CCNCC3)c2C)c(C)[nH]1 [Example 9, 5-Chloro-N-((2,6-dimethyl-4-oxo-1,4-dihydropyridin-3-yl)methyl)-2-methyl-3-(piperidin-4-yloxy)benzamide] | 2500 nM
Cc1cc(=O)c(CNC(=O)c2cc(Cl)cc(O[C@H]3CC[C@H](N4CCCC4)CC3)c2C)c(C)[nH]1 [Example 12, 5-Chloro-N-((2,6-dimethyl-4-oxo-1,4-dihydropyridin-3-yl)methyl)-2-methyl-3-(((1r,4r)-4-(pyrrolidin-1-yl)cyclohexyl)oxy)benzamide] | 795 nM
Cc1cc(=O)c(CNC(=O)c2cc(Cl)cc(OC3CCN(C)CC3)c2C)c(C)[nH]1 [Example 13, 5-Chloro-N-((2,6-dimethyl-4-oxo-1,4-dihydropyridin-3-yl)methyl)-2-methyl-3-((1-methylpiperidin-4-yl)oxy)benzamide] | 5000 nM
Cc1cc(=O)c(CNC(=O)c2cc(Cl)cc(O[C@H]3CC[C@H](N(C)C)CC3)c2C)c(C)[nH]1 [Example 14, 5-Chloro-N-((2,6-dimethyl-4-oxo-1,4-dihydropyridin-3-yl)methyl)-3-(((trans)-4-(dimethylamino)cyclohexyl)oxy)-2-methylbenzamide] | 395 nM

These reach a lower IC50. Values come first.

IC50 | Compound
200 nM | Cc1cc(=O)c(CNC(=O)c2cc(Cl)cc(OC3CCN(C(=O)OCc4ccccc4)CC3)c2C)c(C)[nH]1 [Example 1, Benzyl 4-(5-chloro-3-(((2,6-dimethyl-4-oxo-1,4-dihydropyridin-3-yl)methyl)carbamoyl) -2-methylphenoxy)piperidine-1-carboxylate]
50 nM | CCN(c1cc(Br)cc(C(=O)NCc2c(C)[nH]c(C)c(N)c2=O)c1C)[C@H]1CC[C@H](N2CCOCC2)CC1 [Example 20, N-((5-Amino-2,6-dimethyl-4-oxo-1,4-dihydropyridin-3-yl)methyl)-5-bromo-3-(ethyl((1r,4r)-4-morpholinocyclohexyl)amino)-2-methylbenzamide]
40 nM | Cc1cc(=O)c(CNC(=O)c2cc(Cl)cc(O[C@H]3CC[C@H](C(=O)NCc4ccccc4)CC3)c2C)c(C)[nH]1 [Example 4, 3-(((trans)-4-(Benzylcarbamoyl)cyclohexyl)oxy)-5-chloro-N-((2,6-dimethyl-4-oxo-1,4-dihydropyridin-3-yl)methyl)-2-methylbenzamide]
40 nM | CCN(c1cc(Cl)cc(C(=O)NCc2c(C)oc(C)cc2=O)c1C)[C@H]1CC[C@H](N(C)C)CC1 [Example 6, 5-Chloro-N-((2,6-dimethyl-4-oxo-4H-pyran-3-yl)methyl)-3-(((trans)-4-(dimethylamino)cyclohexyl)(ethyl)amino)-2-methylbenzamide]
40 nM | CCN(c1cc(Br)cc(C(=O)NCc2c(C)[nH]c(C)cc2=O)c1C)C1CCOCC1 [Example 15, 5-Bromo-N-((2,6-dimethyl-4-oxo-1,4-dihydropyridin-3-yl)methyl)-3-(ethyl(tetrahydro-2H-pyran-4-yl)amino)-2-methylbenzamide]
40 nM | CCN(c1cc(Br)cc(C(=O)NCc2c(C)[nH]c(C)cc2=O)c1C)[C@H]1CC[C@H](N(C)C)CC1 [Example 19, 5-Bromo-N-((2,6-dimethyl-4-oxo-1,4-dihydropyridin-3-yl)methyl)-3-(((1r,4r)-4-(dimethylamino)cyclohexyl)(ethyl)amino)-2-methylbenzamide]
32 nM | CCN(c1cc(Cl)cc(C(=O)NCc2c(C)[nH]c(C)c(N)c2=O)c1C)C1CCOCC1 [Example 17]
32 nM | CCN(c1cc(Br)cc(C(=O)NCc2c(C)[nH]c(C)c(N)c2=O)c1C)[C@H]1CC[C@H](N(C)C)CC1 [Example 18, N-((5-Amino-2,6-dimethyl-4-oxo-1,4-dihydropyridin-3-yl)methyl)-5-bromo-3-(((1r,4r)-4-(dimethylamino)cyclohexyl)(ethyl)amino)-2-methylbenzamide]
3 nM | CCN(c1cc(Cl)cc(C(=O)NCc2c(C)[nH]c(C)cc2=O)c1C)[C@H]1CC[C@H](N(C)C)CC1 [Example 16, 5-Chloro-N-((2,6-dimethyl-4-oxo-1,4-dihydropyridin-3-yl)methyl)-3-(((trans)-4-(dimethylamino)cyclohexyl)(ethyl)amino)-2-methylbenzamide]
